In the supplement of paper PMC4862054:

Legend:
Assay in all cases: drug sensitivity score (DSS), CellTiter-Glo (DSS (AUC-based score)); higher = stronger drug effect (viability inhibition or cytotoxicity); extreme values may be limits of the assay
Conditions in all cases: incubation time: 72 h
[1] = test system: BT-474
Summary of the method: (§1)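 Each compound occupied 5 concentrations in 10-fold steps over its own 10,000-fold range in 384-well plates, into which breast cancer cell lines were seeded as 20 µl suspension. Following 72 h of incubation, CellTox Green fluorescence (485/520 nm) was measured, and CellTiter-Glo luminescence was measured after 10 min at room temperature. Plates were individually normalised to 0.1 % DMSO and a positive kill control. From the area under the fitted dose-response curve, a drug sensitivity score was calculated.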

[2] = test system: HCC1143
Summary of the method: as §1

[3] = test system: MDA-MB-453
Summary of the method: as §1

[4] = test system: CAL-51
Summary of the method: as §1

[5] = test system: MDA-MB-231
Summary of the method: as §1

[6] = test system: HCC1599
Summary of the method: as §1

[7] = test system: BT-549
Summary of the method: as §1

[8] = test system: MCF-10A
Summary of the method: as §1

[9] = test system: MDA-MB-436
Summary of the method: as §1

[10] = test system: CAL-120
Summary of the method: as §1

[11] = test system: MFM-223
Summary of the method: as §1

[12] = test system: DU-4475
Summary of the method: as §1

[13] = test system: MDA-MB-468
Summary of the method: as §1

[14] = test system: HDQ-P1
Summary of the method: as §1

[15] = test system: SK-BR-3
Summary of the method: as §1

[16] = test system: Hs578T
Summary of the method: as §1

[17] = test system: CAL-85-1
Summary of the method: as §1

[18] = test system: HCC1937
Summary of the method: as §1

Row | SMILES | drug sensitivity score [1] | drug sensitivity score [2] | drug sensitivity score [3] | drug sensitivity score [4] | drug sensitivity score [5] | drug sensitivity score [6] | drug sensitivity score [7] | drug sensitivity score [8] | drug sensitivity score [9] | drug sensitivity score [10] | drug sensitivity score [11] | drug sensitivity score [12] | drug sensitivity score [13] | drug sensitivity score [14] | drug sensitivity score [15] | drug sensitivity score [16] | drug sensitivity score [17] | drug sensitivity score [18]
1 | Nc1ccn([C@@H]2O[C@H](CO)[C@@H](O)C2(F)F)c(=O)n1 [Gemcitabine] | 3.22 | 14.5 | 4.36 | 16.7 | 0 | 12.8 | 14.7 | 5.69 | 16.8 | 3.04 | 0 | 4.13 | 19.7 | 1.57 | 13.6 | 4.8 | 12.4 | 0
2 | CC(C)C[C@H](NC(=O)[C@@H](COC(C)(C)C)NC(=O)[C@H](Cc1ccc(O)cc1)NC(=O)[C@H](CO)NC(=O)[C@H](Cc1c[nH]c2ccccc12)NC(=O)[C@H](Cc1cnc[nH]1)NC(=O)[C@@H]1CCC(=O)N1)C(=O)N[C@@H](CCCNC(=N)N)C(=O)N1CCC[C@H]1C(=O)NNC(N)=O [Goserelin] | 0 | 0 | 0 | 0 | 0 | 0 | 0 | 0 | 0 | 0 | 0 | 0 | 0 | 0 | 0 | 0 | 0 | 0
3 | O=C(O)CNC(=O)c1c(O)c2ccccc2n(Cc2ccccc2)c1=O [IOX-2] | 0 | 0 | 0 | 3.96 | 0 | 0 | 0.135 | 0 | 0 | 0 | 0 | 0 | 0 | 0 | 0 | 0 | 0 | 0
4 | CC(=O)[C@]1(O)Cc2c(O)c3c(c(O)c2[C@@H](O[C@H]2C[C@H](N)[C@H](O)[C@H](C)O2)C1)C(=O)c1ccccc1C3=O [Idarubicin] | 4.44 | 3.11 | 1.75 | 14.5 | 4.79 | 3.71 | 9.35 | 3.11 | 8.24 | 1.91 | 3.67 | 8.12 | 9.11 | 1.38 | 7.9 | 6.15 | 6.75 | 2.31
5 | C/C(=C\c1csc(C)n1)[C@@H]1C[C@@H]2O[C@]2(C)CCC[C@H](C)[C@H](O)[C@@H](C)C(=O)C(C)(C)[C@@H](O)CC(=O)N1 [Ixabepilone] | 1.23 | 0 | 0 | 14.8 | 0 | 0 | 13.9 | 0 | 0 | 0 | 0 | 0 | 13.9 | 0 | 0 | 0 | 2.2 | 0
6 | C=CCn1c(=O)c2cnc(Nc3ccc(N4CCN(C)CC4)cc3)nc2n1-c1cccc(C(C)(C)O)n1 [MK1775] | 13.9 | 11.6 | 14.6 | 15.5 | 15.7 | 19.9 | 15.7 | 9.77 | 16.7 | 12.1 | 12.4 | 8.47 | 12.5 | 14.9 | 18.8 | 14.5 | 16.2 | 12.4
7 | CN(C)C(=N)NC(=N)N [Metformin] | 0 | 0 | 0 | 6.92 | 0 | 0 | 0 | 0 | 0 | 0 | 0 | 0 | 0.63 | 0 | 0 | 0 | 0 | 0
8 | CN(Cc1cnc2nc(N)nc(N)c2n1)c1ccc(C(=O)N[C@@H](CCC(=O)O)C(=O)O)cc1 [Methotrexate] | 7.54 | 0 | 0 | 16.2 | 7.21 | 1.47 | 0 | 0 | 3.7 | 17.3 | 0 | 0 | 0 | 23.1 | 0 | 2.72 | 9.24 | 30.2
9 | CO[C@@H]1[C@H](N(C)C(=O)c2ccccc2)C[C@H]2O[C@]1(C)n1c3ccccc3c3c4c(c5c6ccccc6n2c5c31)C(=O)NC4 [Midostaurin] | 10.5 | 8.75 | 0 | 15.9 | 10.8 | 0 | 13.8 | 17 | 3.96 | 9.74 | 3.44 | 9.68 | 14.6 | 6.88 | 7.66 | 15.7 | 2.25 | 7.38
10 | CO[C@@]12[C@H](COC(N)=O)C3=C(C(=O)C(C)=C(N)C3=O)N1C[C@@H]1N[C@@H]12 [Mitomycin C] | 0 | 0 | 0 | 10.5 | 0 | 0 | 8.27 | 0 | 3.39 | 0.335 | 0 | 0 | 4.87 | 0.633 | 1.42 | 0 | 2.91 | 0
11 | CCNC(=O)c1noc(-c2cc(C(C)C)c(O)cc2O)c1-c1ccc(CN2CCOCC2)cc1 [NVP-AUY922] | 13 | 11.2 | 12.4 | 15.7 | 13.3 | 3.99 | 14.1 | 16.2 | 14.8 | 9.4 | 14.9 | 17.8 | 21.8 | 17.4 | 16.7 | 11 | 14.1 | 13.8
